From patent US20250108038A1 (priority 2023, published 2025)
Several values for one entry are separate records, joined by “and”; a condition that tells them apart may be missing. Equal entries are not always repeated.

Experiment: in vivo
Details: for plasma concentration of Compound A: after Compound I-19 single PO 6.645 mg/kg; for plasma concentration of Compound I-19: single IP 4.061 mg/kg
Description: Dose solutions were prepared freshly on each day of studies prior to dosing.
The animals were weighed immediately prior to dosing and the dose volume was calculated individually based the obtained body weight and the nominal dose volume. […] The nominal dose volume was 10 mL/kg in both studies.
Cage side observation was performed before and after dosing as well as at each scheduled sample collection time. The observation included appearance, posture, behavior, morbidity and mortality. Abnormal findings, if any, are required to be recorded in the study record and communicated with study director, veterinarian, and Supernus if necessary.
Approximately 40 μL blood was collected at each scheduled time point from saphenous veins. The actual sample collection time was within 1 min. of the nominal time for collections prior to or at 1 hour, and within 5% of the nominal values for collections post 1 hour.
The blood samples were placed in pre-labeled micro-centrifuge tubes containing K2EDTA as anticoagulant and kept on ice before they were processed to plasma within 30 minutes of collection by centrifugation at 4° C., 3000 g for 5 minutes. The plasma samples were stored at −70±10° C. until LC-MS/MS analysis.
Plasma concentrations below the LLOQ prior to Tmax were set to zero, and those after Tmax were excluded from PK calculation. The nominal dose and the nominal sample collection time were used for the calculation. The values of plasma concentrations and PK parameters are reported to three significant figures. The average values of each treatment group are presented as mean±SD.

[1] = after Compound I-19 IP 4.061 mg/kg, average
[2] = after Compound I-19 IP 4.061 mg/kg, mean±SD
[3] = after Compound I-19 PO 6.645 mg/kg, mean±SD
[4] = single IP Compound I-19 4.061 mg/kg, male CD-1 mice, individual animals

Compound: Clc1ccc(C2(OCC3OCCO3)c3ccccc3C3=NCCN32)cc1 (stereo not shown) [Compound I-19]
- AUC0-last of Compound I-19 (IP 4.061 mg/kg, mean±SD): 482 ± 92.9 ng·h/mL
- Cmax of Compound I-19 (IP 4.061 mg/kg, mean±SD): 373 ± 101 ng/mL
- MRT0-last of Compound I-19 (IP 4.061 mg/kg, mean±SD): 69 ± 24.4 min
- T1/2 of Compound I-19 (IP 4.061 mg/kg, mean±SD): 37.9 ± 16.2 min
- Tmax of Compound I-19 (IP 4.061 mg/kg, mean±SD): 25 ± 8.64 min
- AUC0-last of Compound I-19 (PO 6.645 mg/kg, mean±SD): 2.04 ± 2.56 ng·h/mL
- Cmax of Compound I-19 (PO 6.645 mg/kg, mean±SD): 4.27 ± 3.1 ng/mL
- MRT0-last of Compound I-19 (PO 6.645 mg/kg, mean±SD): 21.9 ± 7.56 min
- Tmax of Compound I-19 (PO 6.645 mg/kg, mean±SD): 20 ± 8.64 min
- MRT0-last of Compound B [1]: 186 min
- T1/2 of Compound B [1]: 220 min
- Tmax of Compound B [1]: 120 min
- AUC0-last of Compound A [2]: 104 ± 36.7 ng·h/mL
- AUC0-last of Compound B [2]: 120 ± 58.1 ng·h/mL
- Cmax of Compound A [2]: 50.5 ± 20 ng/mL
- Cmax of Compound B [2]: 30.7 ± 5.42 ng/mL
- MRT0-last of Compound A [2]: 106 ± 27.2 min
- T1/2 of Compound A [2]: 75 ± 18.8 min
- Tmax of Compound A [2]: 40 ± 17.3 min
- AUC0-last of Compound A [3]: 203 ± 45.2 ng·h/mL
- Cmax of Compound A [3]: 158 ± 27.2 ng/mL
- MRT0-last of Compound A [3]: 71.4 ± 4.14 min
- T1/2 of Compound A [3]: 51.3 ± 10.4 min
- Tmax of Compound A [3]: 20 ± 8.64 min
- plasma concentration of Compound A (0.500 h, mean): 126 ng/mL
- plasma concentration of Compound A (1.00 h, individual mice, 6.645 mg/kg): 123 ng/mL and 54.4 ng/mL and 83.2 ng/mL
- plasma concentration of Compound A (1.00 h, mean): 86.9 ng/mL
- plasma concentration of Compound A (2.00 h, individual mice, 6.645 mg/kg): 44.1 ng/mL and 31.3 ng/mL and 36.7 ng/mL
- plasma concentration of Compound A (2.00 h, mean): 37.4 ng/mL
- plasma concentration of Compound A (4.00 h, individual mice, 6.645 mg/kg): 5.24 ng/mL and 6.75 ng/mL and 8.65 ng/mL
- plasma concentration of Compound A (4.00 h, mean): 6.88 ng/mL
- plasma concentration of Compound A (8.00 h, individual mice): BQL
- plasma concentration of Compound A (24.0 h, individual mice): BQL
- Clinical observation (tolerability) (male CD-1 mice, administered dosages (Compound A PO 5.102 mg/kg; Compound I-19 PO 6.645, IP 4.061 mg/kg)): well tolerated
- plasma concentration of Compound I-19 (0.500 h, individual mice, 4.061 mg/kg): 415 ng/mL and 311 ng/mL and 318 ng/mL
- plasma concentration of Compound I-19 (0.500 h, mean): 348 ng/mL
- plasma concentration of Compound I-19 ([…] h, individual mice, 4.061 mg/kg): 196 ng/mL and 269 ng/mL and 201 ng/mL
- plasma concentration of Compound I-19 ([…] h, mean): 222 ng/mL
- plasma concentration of Compound I-19 (2.00 h, individual mice, 4.061 mg/kg): 39.7 ng/mL and 100 ng/mL and 71.6 ng/mL
- plasma concentration of Compound I-19 (2.00 h, mean): 70.4 ng/mL
- plasma concentration of Compound I-19 (4.00 h, mean): 13.1 ng/mL
- plasma concentration of Compound I-19 (8.00 h, individual mice): 1.39 ng/mL
- plasma concentration of Compound I-19 (8.00 h, individual mice, 4.061 mg/kg): BQL
- plasma concentration of Compound I-19 (24.0 h, individual mice): BQL
- AUC0-inf of Compound I-19 [4]: 444 ng·h/mL and 589 ng·h/mL and 417 ng·h/mL
- AUC0-last of Compound I-19 [4]: 443 ng·h/mL and 588 ng·h/mL and 414 ng·h/mL
- Cmax of Compound I-19 [4]: 489 ng/mL and 311 ng/mL and 318 ng/mL
- MRT0-inf of Compound I-19 [4]: 49.6 min and 97.2 min and 62.4 min
- MRT0-last of Compound I-19 [4]: 48.9 min and 96 min and 61.2 min
- T1/2 of Compound I-19 [4]: 27.1 min and 56.5 min and 29.9 min
- Tlast of Compound I-19 [4]: 4.00 h (2×) and 8.00 h
- Tmax of Compound I-19 [4]: 30 min
